Experimental findings from BindingDB's records for doi:10.1016/S0960-894X(01)80277-8 (1994) are described below.

This assay can be described thus: Binding to delta opioid receptor by using [3H]DPDPE as radioligand in guinea pig brain minus cerebellum.

As usually defined, the IC50 is the midpoint of a concentration-inhibition curve. In turn, `CC(=O)c1ccc2c3c1O[C@H]1[C@@H](O)C=C[C@H]4[C@@H](C2)N(C)CC[C@@]341` [1-[14-hydroxy-4-methyl-(1S,5R,13R,14S,17R)-12-oxa-4-azapentacyclo[9.6.1.01,13.05,17.07,18]octadeca-7(18),8,10,15-tetraen-10-yl]-1-ethanone] showed an IC50 of 7.9 µM.

As to `CN1CC[C@]23c4c5ccc(-c6ccoc6)c4O[C@H]2[C@@H](O)C=C[C@H]3[C@H]1C5` [10-(3-furyl)-4-methyl-(1S,5R,13R,14S,17R)-12-oxa-4-azapentacyclo[9.6.1.01,13.05,17.07,18]octadeca-7(18),8,10,15-tetraen-14-ol], the IC50 amounted to 7.4 µM.
